A short description of data set [1]: Measurement of blood drug concentration (2), change over time. It is filed as in vivo. To be noted: mice, i.v. 2 mg/kg, 15 minutes, 4 hours and 24 hours after administration. As to the method:
The blood was centrifuged for 10 minutes at about 1200 g, and the plasma was collected. The drug concentration of the harvested plasma was assayed using LC-MS/MS.
The liposome compositions of Examples 2, 5 and 8, and an aqueous solution of methanesulfonic acid salt of compound (I), were administered to mice by the same method as “4. Measurement of blood drug concentration (1)”, collecting blood at 15 minutes, 4 hours and 24 hours after administration, and measuring the change in blood drug concentration.

The subject of data set [2] is HUVEC proliferation in the presence of bFGF. Kind of data set: HUVEC 2D growth assay, cell proliferation by bFGF stimulation. The class given is cell-based. To be noted: Homo sapiens, 72 h, bFGF 20 ng/mL, 3 days, CellTiter-Glo. The method, then:
(§1) 1. Measurement of Inhibiting Effect on Cell Proliferation by Vascular Endothelial Growth Factor (VEGF) or Basic Fibroblast Growth Factor (bFGF) Stimulation
(§2) The inhibiting effect of compound (I) on cell proliferation by VEGF or bFGF stimulation was evaluated by the following procedure based on HUVEC 2D growth assay.
(§3) Normal human umbilical vein endothelial cells (HUVEC) were isolated by a previously reported method (Shinseikagaku Jikken Koza, “Cell Culture Technology”, p.197-202). The cells were cultured overnight in a collagen I-coated flask (IWAKI 4143-010), with EGM-2 culture medium (Lonza Inc CC-3162) containing 10% Fetal Bovine Serum (FBS: Sigma 172012) in a 5% CO2 incubator (37° C.). On the following day, the culture supernatant was discarded and the medium was exchanged with EBM-2 culture medium containing 2% FBS, prior to further culturing overnight. On the following day, 2% FBS, and a HUVEC cell suspension prepared to 1.5×10^4 cells/mL with Human Endothelial Serum Free Medium (SFM: Gibco 11111-044) containing penicillin/streptomycin (FujiFilm-Wako Pure Chemical Industries) (hereunder referred to as “2% FBS-SFM”) were each added at 100 μL to each well of a 96-well plate (Corning 3904), and culturing was carried out overnight in a 5% CO2 incubator (37° C.). […]
For orientation: In ATP-based viability assays light output follows the ATP content of the culture.

Data set [3] has as its system HUVEC proliferation in the presence of VEGF. Kind of data set: HUVEC 2D growth assay, cell proliferation by VEGF stimulation. It is filed as cell-based. The note with it: Homo sapiens, 72 h, VEGF 20 ng/mL, 3 days, CellTiter-Glo. The method, then:
as §1, §2, §3

Each structure is given as a SMILES string.

What is called IC50 is the concentration at which inhibition is half-maximal.

`CCNC(=O)Nc1ccc(Oc2ccnc3cc(OC)c(C(N)=O)cc23)cc1Cl.CS(=O)(=O)O` [4-(3-Chloro-4-(ethylaminocarbonyl)aminophenoxy)-7-methoxy-6-quinolinecarboxamide methanesulfonate]: the “Change in blood drug concentration (FIG. 1), in words” value in data set [1] is listed as “significantly lower after 24 hours”.
For `CCNC(=O)Nc1ccc(Oc2ccnc3cc(OC)c(C(N)=O)cc23)cc1Cl` [compound (I), 4-(3-chloro-4-(ethylaminocarbonyl)aminophenoxy)-7-methoxy-6-quinolinecarboxamide], the half-maximal inhibitory concentration (IC50) in data set [2] turned out to be 343 nM; in data set [3] it was 1.75 nM.

(Values after patent US20250177302A1, “LIPOSOME COMPOSITION AND LIPOSOME-CONTAINING PHARMACEUTICAL COMPOSITION” (Eisai R&D Management Co., Ltd., priority 2022, published 2025).)
